This is an account of results in US9731027B2, “Somatostatin-dopamine chimeric analogs” (Ipsen Pharma S.A.S., priority 2012, dated 2017).

What is called Ki is a dissociation constant, usually derived from enzyme kinetics or from competition with a known ligand. A word on the EC50: it is the concentration needed to bring the measured effect to its halfway point. A word on the Emax: it is the greatest response seen or fitted, relative to the assay's reference.

Where two headings read alike, the source gives them in different places. Bridge positions count the residues as written; N and C are the ends. Square brackets hold non-standard residues; d marks the D form. Peptide text beside a SMILES is read from it. * marks the point of attachment. X2 = CN1C[C@H](CSCC(=O)*)C[C@@H]2c3cccc4[nH]cc(c34)C[C@H]21

For assay [1], the system named is pituitary tumor cells of acromegalic patients presenting with macroadenoma. The assay can be described thus: Human pituitary adenoma cell growth hormone release assay. It is filed as cell-based. To be noted: 18 hours incubation, AlphaLISA GH immunoassay; FIG. 5. The method, then: FIG. 1 is a graph showing the Growth hormone suppressing activity of Compound 4 (see Table I hereinbelow for its chemical name and its corresponding structural representation) on pituitary tumor cells of acromegalic patients presenting with macroadenoma. Various concentrations of Compound 4 were added to the medium and the cells were incubated for 18 hours before measurement of Growth hormone levels in the medium using the AlphaLISA Growth Hormone Immunoassay Research kit (PerkinElmer).
Various concentrations of Compounds 4 and 5 were added to the medium and the cells were incubated for 18 hours before measurement of Growth hormone levels in the medium using the AlphaLISA Growth Hormone Immunoassay Research kit (PerkinElmer).
Acromegalic patients presenting with macroadenoma underwent transsphenoidal surgery and a portion of each tumor obtained at surgery was dissociated by enzymatic and mechanical methods. The cells were cultured in DMEM medium supplemented with 10% FBS and antibiotics for 3 days. The cells were then plated in multi-well tissue culture dishes coated with extracellular matrix from bovine endothelial corneal cells at a density of 3-5×10^4 cells/well in DMEM supplemented with 10% FBS and antibiotics. After 2-3 days of culture, the medium was changed to DMEM supplemented with 1% FBS, antibiotics and 1% ITS (insulin, transferrin and selenium).

Assay [2] deals with T1, hSSTR2 (Homo sapiens, UniProt P30874).
T1 construct: host or cells: 'Cells expressing hSSTR2'
As to the kind of experiment: Somatostatin receptor radioligand binding assay, hSSTR2.
Description: The affinities of a test compound for the human somatostatin receptors were determined by radioligand binding assays in CHO-K1 cells stably transfected with each of the human somatostatin receptor subtypes, hSSTR1-5. The cDNA coding sequences of hSSTR1 (GenBank accession No. NM_001049.1), hSSTR2 (GenBank accession No. XM_012697.1), hSSTR3 (GenBank accession No. XM_009963.1), hSSTR4 (GenBank accession No. NM_001052.1), and hSSTR5 (GenBank accession No. XM_012565.1) were subcloned into the mammalian expression vector pcDNA3.1 (Life Technologies). Clonal cell lines stably expressing each of the somatostatin receptors were obtained by transfection into CHO-K1 cells (ATCC) and subsequently selected with culture media containing 0.8 mg/mL of G418 (Life Technologies).
Membranes for in vitro receptor binding assays were obtained by the following procedures. […] The supernatant containing the plasma membranes was centrifuged at 100,000×g for 30 minutes and the pellet was resuspended in buffer containing 20 mM glycine-glycine, 1 mM MgCl2, 250 mM sucrose, pH 7.2, for storage at −80° C. […]

In assay [3] the target is T1, hSSTR2. The assay can be described thus: Intracellular calcium mobilization assay (FLIPR Calcium 4), hSSTR2. It is filed as cell-based. In general terms: A change in cytosolic calcium serves as a functional read-out for many receptors and channels.
Description: The ability of select compounds according to the present invention to activate hSSTR2 and hDRD2 was determined by the intracellular calcium mobilization assay using FLIPR Calcium 4 assay kit (Molecular Devices).
Cells expressing hSSTR2 or hDRD2 were plated in 384-well microplates in tissue culture media and incubated for 16-24 hours at 37° C. in a humidified atmosphere with 5% CO2. Medium was replaced by loading buffer containing Hank's buffered saline, 20 mM HEPES, 2.5 mM probenecid and Calcium 4 dye, and the plates were incubated at 37° C. for 60 minutes.

T1 sequence (P30874 whole entry): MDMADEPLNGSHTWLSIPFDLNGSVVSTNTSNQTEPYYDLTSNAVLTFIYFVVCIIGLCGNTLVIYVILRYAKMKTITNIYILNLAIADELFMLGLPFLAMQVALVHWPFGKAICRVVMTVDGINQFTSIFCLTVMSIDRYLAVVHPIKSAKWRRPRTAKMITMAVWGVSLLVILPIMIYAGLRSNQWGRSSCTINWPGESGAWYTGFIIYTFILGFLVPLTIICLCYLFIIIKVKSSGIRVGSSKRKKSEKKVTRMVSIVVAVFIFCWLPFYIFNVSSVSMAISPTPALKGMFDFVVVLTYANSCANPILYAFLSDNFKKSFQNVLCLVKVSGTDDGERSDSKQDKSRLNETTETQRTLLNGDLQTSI

As for `C[C@@H](O)[C@@H]1NC(=O)[C@H](CCCCN)NC(=O)[C@@H](Cc2c[nH]c3ccccc23)NC(=O)[C@H](Cc2ccncc2)NC(=O)[C@H](Cc2ccccc2)NC(=O)[C@H](CCCNC(=N)N)NC(=O)[C@H](NC[C@H](Cc2ccc(O)cc2)NC(=O)CSC[C@@H]2C[C@@H]3c4cccc5[nH]cc(c45)C[C@H]3N(C)C2)CCCCNC(=O)[C@H](Cc2ccccc2)NC1=O` [Compound 4, Dop1-Tyr-psi(CH2NH)-cyclo(DLys-Arg-Phe-4Pal-DTrp-Lys-Thr-Phe)], the “Growth hormone suppressing activity compared to the parent somatostatin analogs” value in assay [1] was “enhanced Growth hormone suppressing activity”.
The same measure, in the same setting: with `C[C@@H](O)[C@@H]1NC(=O)[C@H](CCCCN)NC(=O)[C@@H](Cc2c[nH]c3ccccc23)NC(=O)[C@H](Cc2ccccc2)NC(=O)[C@H](Cc2ccccc2)NC(=O)[C@H](CCCNC(=N)N)NC(=O)[C@H](NC[C@H](Cc2ccc(O)cc2)NC(=O)CSC[C@@H]2C[C@@H]3c4cccc5[nH]cc(c45)C[C@H]3N(C)C2)CCCCNC(=O)[C@H](Cc2ccc(F)cc2)NC1=O` [Compound 5, Dop1-Tyr-psi(CH2NH)-cyclo(DLys-Arg-Phe-Phe-DTrp-Lys-Thr-4FPhe)] the entry was “enhanced Growth hormone suppressing activity”.
Regarding `C[C@@H](O)[C@@H]1NC(=O)[C@H](CCCCN)NC(=O)[C@@H](Cc2c[nH]c3ccccc23)NC(=O)[C@H](Cc2ccccc2)NC(=O)[C@H](Cc2ccccc2)NC(=O)[C@H](CCCNC(=N)N)NC(=O)[C@@H](NC[C@H](Cc2ccc(O)cc2)NC(=O)CSC[C@@H]2C[C@@H]3c4cccc5[nH]cc(c45)C[C@H]3N(C)C2)CCCNC(=O)[C@H](Cc2ccccc2)NC1=O` [Compound 43, Dop1-Tyr-psi(CH2NH)-cyclo(Orn-Arg-Phe-Phe-DTrp-Lys-Thr-Phe)], the inhibition constant (Ki) on hSSTR2 [2] was 1.07 ± 0.39 nM. Also, on hSSTR2 [3], the EC50 was 31.6 ± 4.3 nM.
Regarding `C[C@@H](O)[C@@H]1NC(=O)[C@H](CCCCN)NC(=O)[C@@H](Cc2c[nH]c3ccccc23)NC(=O)[C@H](Cc2ccccc2)NC(=O)[C@H](Cc2ccccc2)NC(=O)[C@H](CCCNC(=N)N)NC(=O)[C@H](NC(=O)CSC[C@@H]2C[C@@H]3c4cccc5[nH]cc(c45)C[C@H]3N(C)C2)CCCCNC(=O)[C@H](Cc2ccccc2)NC1=O` [Compound 44, Dop1-cyclo(DLys-Arg-Phe-Phe-DTrp-Lys-Thr-Phe)] (X2-[dK]RFF[dW]KTF; lactam 1-C), at hSSTR2 [3] (read-out: hSSTR2 % Emax ± SEM), the Emax was determined as 97.1 ± 5.9%.
Take `C[C@@H](O)[C@@H]1NC(=O)[C@H](CCCCN)NC(=O)[C@@H](Cc2c[nH]c3ccccc23)NC(=O)[C@H](Cc2ccc(O)cc2)NC(=O)[C@H](Cc2ccncc2)NC(=O)[C@H](CCCNC(=N)N)NC(=O)[C@H](NC[C@@H](Cc2ccc(O)cc2)NC(=O)CSC[C@@H]2C[C@@H]3c4cccc5[nH]cc(c45)C[C@H]3N(C)C2)CCCCNC(=O)[C@H](Cc2ccccc2)NC1=O` [Compound 46, Dop1-DTyr-psi(CH2NH)-cyclo(DLys-Arg-4Pal-Tyr-DTrp-Lys-Thr-Phe)]: the Ki on hSSTR2 [2] (CHO-K1 membranes, [125I-Tyr]-seglitide, read-out: hSSTR2 Ki (nM) ± SEM) stood at 0.52 ± 0.06 nM. For the same molecule, on hSSTR2 [3] (calcium mobilization, cells expressing hSSTR2, read-out: hSSTR2 EC50 (nM) ± SEM), the EC50 is 60 nM.
